{"source": "patent US12433803B2", "about": "“Methods and compositions for studying cell evolution” (THE BROAD INSTITUTE, INC., priority 2017, dated 2025)", "system": "D458 medulloblastoma cells", "test": "Drug resistance experiment: barcoded D458 cells passaged in JQ1, barcode sequencing and deconvolution", "format": "cell-based", "settings": "FIG. 4; barcoded cells passaged with JQ1 (2 uM per method b225); same barcodes recovered in replicate experiments", "description": "Drug resistance experiments—D458 and JQ1. Barcoded D458 medulloblastoma cells (fingerprint verified) cells were treated with DMSO or JQ1 (obtained from Drs Bradner and Qi) at a concentration of 2 uM in multiple replicate plates (5×DMSO and 5× each drug concentration). 4 million cells of barcoded D458 cells were plated in each replicate plate in presence of DMSO or JQ1. Barcoded JQ1 cells were also frozen in 10% DMSO/FCS for future retrievable. In addition, cells were also collected for DNA-extraction to determine barcode representation at the early-time point. Cells were retreated with compound every 3-4 days. Cells were counted, passaged or split every 3-4 days, maintaining a minimum representation of 4 million cells. Cells were cultured in DMSO or JQ1 for a total of […] prior to harvesting for DNA extraction for barcode sequencing and deconvolution.\nLibrary deconvolution. Genomic DNA was extracted and prepared for deep sequencing as in (JJ 2017). Libraries were sequenced to a minimum depth of 18 million reads, corresponding to a barcode coverage of >80×.", "data": [{"smiles": "Cc1sc2c(c1C)C(c1ccc(Cl)cc1)=N[C@@H](CC(=O)OC(C)(C)C)c1nnc(C)n1-2", "note": "[JQ1]", "values": [{"measurement": "Percentage of barcodes that persist following treatment with JQ1", "value": 5, "unit": "%"}]}]}
